Assay results: US11179412B2, “Methods of treating conditions involving elevated inflammatory response” (University of Pittsburgh—Of the Commonwealth System of …, priority 2017, dated 2021)
Entries after “also recorded” stand apart in the source; their conditions may differ.

Columns and labels:
[1] = tested on: STING signaling (TBK1, IRF3, p65, ALK, EGFR, AKT phosphorylation) in RAW264.7 cells; test: Western blot of STING pathway protein phosphorylation, RAW264.7; assay type: cell-based, mouse; conditions: 10 μM
Description: For immunoblotting, cells were lysed in Cell Lysis Buffer (#9803, Cell Signaling Technology) with protease inhibitor cocktail (Promega), phosphatase inhibitor cocktail (Sigma), and 1 mM Na3VO4 (70). Cleared lysates were resolved by SDS-PAGE (#3450124, Bio-Rad) and then transferred onto PVDF membranes (#1704273, Bio-Rad). The membranes were blocked with Tris-buffered saline Tween 20 (TBST) containing 5% skim milk for 1 h at room temperature and then incubated with the indicated primary antibodies (1:1000-1:5000) overnight at 4° C. After being washed with TBST, the membranes were incubated with an HRP-linked anti-mouse IgG secondary antibody (#7076, Cell Signaling Technology) or HRP-linked anti-rabbit IgG secondary antibody (#7074, Cell Signaling Technology) for 1 h at room temperature. The membranes were washed three times in TBST and then visualized and analyzed with a ChemiDoc Touch Imaging System (#1708370, Bio-Rad). The intensities of bands were analyzed with Image Lab software.

[2] = tested on: STING activation (IFNβ release) in iBMDMs; test: IFNβ release ELISA after STING ligand (or LPS) stimulation, iBMDMs; assay type: cell-based, mouse
Summary of the method: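 iBMDMs were stimulated with a STING ligand such as 3′3′-cGAMP, or with LPS. Secreted IFNβ in culture medium was measured by commercial mouse or human IFNβ ELISA.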

[3] = tested on: STING activation (IFNβ release) in THP1 cells; test: IFNβ release ELISA, THP1 cells; assay type: cell-based, human; conditions: STING ligands 10 μg/ml, inhibitor 10 μM, 16 hours
Description: (§1) Macrophages or monocytes were treated with 3′3′-cGAMP (10 μg/ml, Invitrogen) for 16 hours in the absence or presence of one compound (10 μM) from the Target-selective Inhibitory Library (#L3500, Selleck Chemicals). Commercially available enzyme-linked immunosorbent assay (ELISA) kits were used to measure the concentrations of mouse IFNβ (Thermo Fisher Scientific) or human IFNβ (Thermo Fisher Scientific) in culture medium according to the manufacturer's instructions.

[4] = tested on: STING activation (IFNβ release) in J774A.1 cells; test: IFNβ release ELISA, J774A.1 cells; assay type: cell-based, mouse; conditions: STING ligands 10 μg/ml, inhibitor 10 μM, 16 hours
Description: as §1

[5] = tested on: IFNβ mRNA in RAW264.7 cells; test: IFNβ mRNA Q-PCR, RAW264.7 cells; assay type: cell-based, mouse; conditions: STING ligands 10 μg/ml, inhibitor 10 μM, 16 hours
Description: (§2) Total RNA was extracted using QIAGEN RNeasy Plus Kit according to the manufacturer's instructions. First-strand cDNA was synthesized from 1 μg of RNA using the iScript cDNA Synthesis kit (#1708890, Bio-Rad). Briefly, 20 μl reactions were prepared by combining 4 μl iScript Select reaction mix, 2 μl gene-specific enhancer solution, 1 μl reverse transcriptase, 1 μl gene-specific assay pool (20×, 2 μM), and 12 μl RNA diluted in RNase-free water. Quantitative real-time PCR was carried out using synthesized cDNA, primers, and SsoFast EvaGreen Supermix (#172-5204, Bio-Rad). The expression of target genes was calculated using the ddCt method relative to the expression of a house-keeping gene, β-actin. Data shown are the relative quantity (RQ), with RQ of the control cells set to one.

[6] = tested on: receptor tyrosine kinase phosphorylation in iBMDMs; test: Proteome Profiler phospho-RTK array, iBMDMs; assay type: cell-based, mouse; conditions: 3′3′-cGAMP or c-di-AMP 10 μg/ml, 16 hours, LDK378 10 μM
Description: The Proteome Profiler Mouse XL Cytokine Array Kit (#ARY028) and the Proteome Profiler Mouse Phospho-RTK Array Kit (#ARY014) are membrane-based sandwich immunoassays. Captured antibodies spotted in duplicate on nitrocellulose membranes bind to specific target proteins present in the sample (Step 1). Captured proteins are detected with biotinylated detection antibodies (Step 2) and then visualized using chemiluminescent detection reagents (Step 3). The signal produced is proportional to the amount of analyte bound. The intensities of bands were analyzed with Quick Spots Image Analysis Software (Western Vision Software, http://www.wvision.com/QuickSpots.html).

[7] = tested on: IFNβ mRNA in J774A.1 cells; test: IFNβ mRNA Q-PCR, J774A.1 cells; assay type: cell-based, mouse; conditions: STING ligands 10 μg/ml, inhibitor 10 μM, 16 hours
Description: as §2

[8] = tested on: LPS-induced endotoxemia in C57BL/6J mice; test: Endotoxemia model (LPS); assay type: in vivo, mouse
Description: LPS (Escherichia coli […], 10 mg/kg, #L4391, Sigma) was dissolved in PBS. Male or female C57BL/6J mice (eight- to 10-weeks old, 22 to 26 g weight) received a single oral dose of LDK378 (20 mg/kg) or vehicle, then an infusion of LPS (10 mg/kg, intraperitoneally) 60 minutes later. Mice were re-treated with LDK378 or vehicle six, 12, and 24 hours after LPS infusion.
Biochemical measurements of tissue enzymes (CK, AMYL, BUN, and ALT) in serum were performed using the IDEXX Catalyst Dx Chemistry Analyzer according to the manufacturer's protocol.
Tissues were embedded in optimum cutting temperature cryomedium (Sakura Finetek, Zoeterwoude, the Netherlands) and cut into 4 μm sections. The deparaffinized sections were then stained using the standard H&E method. The stained slides were observed using an EVOS FL Auto Cell Imaging System (Invitrogen), five fields per section and three sections per sample.

[9] = biological target: T1, interaction between ALK and EGFR (Mus musculus, UniProt P97793+Q01279); test: IP analysis of the interaction between ALK and EGFR, iBMDMs; assay type: cell-based; conditions: 3′3′-cGAMP or c-di-AMP 10 μg/ml, 16 hours, 10 μM
T1 construct: endogenous in cells; host or cells: iBMDMs
T1 sequence (P97793 19-1621): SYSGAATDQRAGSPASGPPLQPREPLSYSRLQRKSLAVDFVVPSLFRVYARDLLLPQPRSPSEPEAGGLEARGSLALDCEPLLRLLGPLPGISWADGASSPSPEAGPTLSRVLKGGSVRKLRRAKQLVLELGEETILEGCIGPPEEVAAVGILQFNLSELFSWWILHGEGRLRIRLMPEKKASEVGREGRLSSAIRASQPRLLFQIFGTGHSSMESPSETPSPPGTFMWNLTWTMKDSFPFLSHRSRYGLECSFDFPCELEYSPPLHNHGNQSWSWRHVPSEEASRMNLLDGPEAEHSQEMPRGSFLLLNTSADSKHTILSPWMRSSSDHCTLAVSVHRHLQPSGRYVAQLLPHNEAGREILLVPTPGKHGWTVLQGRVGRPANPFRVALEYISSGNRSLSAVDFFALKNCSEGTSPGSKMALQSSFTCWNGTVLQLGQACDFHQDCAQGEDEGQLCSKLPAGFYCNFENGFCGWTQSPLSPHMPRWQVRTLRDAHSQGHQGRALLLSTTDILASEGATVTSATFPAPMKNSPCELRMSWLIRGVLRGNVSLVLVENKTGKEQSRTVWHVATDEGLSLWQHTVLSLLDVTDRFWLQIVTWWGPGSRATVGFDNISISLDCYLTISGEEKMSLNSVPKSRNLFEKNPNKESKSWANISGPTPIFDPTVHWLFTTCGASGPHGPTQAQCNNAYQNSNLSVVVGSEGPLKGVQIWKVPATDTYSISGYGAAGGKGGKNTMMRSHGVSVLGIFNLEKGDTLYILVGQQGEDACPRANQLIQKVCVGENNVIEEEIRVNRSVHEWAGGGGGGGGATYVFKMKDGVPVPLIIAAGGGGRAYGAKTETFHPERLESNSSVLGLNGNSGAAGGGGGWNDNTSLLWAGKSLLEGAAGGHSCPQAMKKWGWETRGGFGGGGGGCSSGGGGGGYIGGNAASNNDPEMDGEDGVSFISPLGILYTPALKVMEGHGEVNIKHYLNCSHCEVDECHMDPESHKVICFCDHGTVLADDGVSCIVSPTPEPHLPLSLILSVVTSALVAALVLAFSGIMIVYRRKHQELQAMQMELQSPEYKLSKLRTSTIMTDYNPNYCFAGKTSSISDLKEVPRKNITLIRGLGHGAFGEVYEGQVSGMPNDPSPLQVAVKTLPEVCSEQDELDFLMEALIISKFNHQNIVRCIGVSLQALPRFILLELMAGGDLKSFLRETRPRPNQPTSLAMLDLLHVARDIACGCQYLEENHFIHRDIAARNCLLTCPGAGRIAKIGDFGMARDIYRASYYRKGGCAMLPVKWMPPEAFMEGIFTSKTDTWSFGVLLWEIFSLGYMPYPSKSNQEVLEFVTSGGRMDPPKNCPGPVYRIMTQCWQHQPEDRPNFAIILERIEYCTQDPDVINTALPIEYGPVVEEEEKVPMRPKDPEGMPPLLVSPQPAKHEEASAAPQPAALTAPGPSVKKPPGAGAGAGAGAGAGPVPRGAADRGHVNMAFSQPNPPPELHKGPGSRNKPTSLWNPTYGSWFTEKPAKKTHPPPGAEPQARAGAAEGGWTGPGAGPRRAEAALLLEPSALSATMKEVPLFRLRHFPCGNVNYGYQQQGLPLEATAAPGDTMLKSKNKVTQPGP
T1 sequence (Q01279 25-1210): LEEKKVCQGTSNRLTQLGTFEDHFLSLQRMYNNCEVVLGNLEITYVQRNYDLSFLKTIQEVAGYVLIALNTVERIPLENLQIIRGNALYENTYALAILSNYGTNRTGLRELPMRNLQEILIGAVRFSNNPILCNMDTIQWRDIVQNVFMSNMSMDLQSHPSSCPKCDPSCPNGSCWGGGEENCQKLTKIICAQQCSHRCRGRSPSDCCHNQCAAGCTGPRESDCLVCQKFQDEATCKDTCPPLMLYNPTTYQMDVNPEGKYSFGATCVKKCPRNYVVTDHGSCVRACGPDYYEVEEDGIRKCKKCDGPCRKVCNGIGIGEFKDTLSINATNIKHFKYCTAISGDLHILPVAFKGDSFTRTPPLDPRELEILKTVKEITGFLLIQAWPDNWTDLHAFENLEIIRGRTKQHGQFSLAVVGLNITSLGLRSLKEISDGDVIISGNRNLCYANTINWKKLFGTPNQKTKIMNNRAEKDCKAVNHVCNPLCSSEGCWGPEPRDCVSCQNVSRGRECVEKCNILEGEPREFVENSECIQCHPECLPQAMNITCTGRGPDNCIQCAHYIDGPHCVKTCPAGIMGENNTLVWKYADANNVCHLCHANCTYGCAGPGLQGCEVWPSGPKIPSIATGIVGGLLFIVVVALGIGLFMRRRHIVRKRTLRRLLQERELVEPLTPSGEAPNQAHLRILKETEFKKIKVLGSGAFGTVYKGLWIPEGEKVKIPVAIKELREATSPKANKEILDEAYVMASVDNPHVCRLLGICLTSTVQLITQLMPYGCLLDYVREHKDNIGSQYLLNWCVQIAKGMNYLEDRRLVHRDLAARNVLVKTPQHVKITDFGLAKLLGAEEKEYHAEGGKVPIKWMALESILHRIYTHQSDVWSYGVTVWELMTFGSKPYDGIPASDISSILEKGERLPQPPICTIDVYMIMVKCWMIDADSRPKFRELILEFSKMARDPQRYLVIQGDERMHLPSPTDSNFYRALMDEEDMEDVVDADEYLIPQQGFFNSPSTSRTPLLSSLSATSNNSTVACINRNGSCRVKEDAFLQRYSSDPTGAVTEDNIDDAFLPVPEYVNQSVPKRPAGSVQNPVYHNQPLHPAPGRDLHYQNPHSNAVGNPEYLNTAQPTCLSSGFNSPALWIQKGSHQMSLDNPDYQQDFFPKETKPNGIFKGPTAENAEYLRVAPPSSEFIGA
Description: Concentrations of proteins in the supernatant were determined by bicinchoninic acid assay. […] Following incubation, agarose/sepharose beads were washed extensively with PBS and proteins were eluted by boiling in 2× sodium dodecyl sulfate (SDS) sample buffer before SDS-PAGE electrophoresis.

[10] = LPS 10 mg/kg, LDK378 20 mg/kg, 24 hours

## Cc1cc(Nc2ncc(Cl)c(Nc3ccccc3S(=O)(=O)C(C)C)n2)c(OC(C)C)cc1C1CCNCC1 [LDK378, 5-chloro-N^2-(2-isopropoxy-5-methyl-4-(piperidin-4-yl)phenyl)-N^4-[2-(propane-2-sulfonyl)-phenyl]-pyrimidine-2,4-diamine]
[1]; 3′3′-cGAMP 10 μg/ml, three to 16 hours
  3′3′-cGAMP-induced p-TBK1: time-dependently reduced
[1]; 3′3′-cGAMP or c-di-AMP 10 μg/ml, 16 hours
  STING ligand-induced phosphorylation of TBK1, IRF3, and p65: diminished
[1]; ligand 10 μg/ml
  3′3′-cGAMP-, c-di-AMP-, and DMXAA-induced p-IRF3 and p-p65: inhibited
[1]; ligand 10 μg/ml, 16 hours
  c-di-AMP- or DMXAA-induced p-TBK1: inhibited
  3′3′-cGAMP- or c-di-AMP-induced phosphorylation of ALK, EGFR, and AKT: attenuated
[2]
  fold increase in IFN-β release: 0.08 fold
[2]; iBMDMs, 3′3′-cGAMP 10 μg/ml, 16 hours, compound 10 μM
  3′3′-cGAMP-induced IFNβ release: blocked; also recorded: diminished
[2]; iBMDMs, LPS 1 μg/ml, LDK378 10 μM, three hours
  LPS-induced IFNβ release: inhibited
[2]; iBMDMs, STING ligands 10 μg/ml, inhibitor 10 μM, 16 hours
  IFNβ release induced by STING ligands: inhibited
[3]
  IFNβ release induced by STING ligands: inhibited
[4]
  IFNβ release induced by STING ligands: inhibited
[5]
  STING ligand-induced IFNβ mRNA expression: attenuation
[6]
  STING ligand-induced upregulated phosphorylation of various RTKs, including EGFR: impaired
[7]
  STING ligand-induced IFNβ mRNA expression: attenuation
[8]; LPS 10 mg/kg i.p., LDK378 20 mg/kg
  endotoxemic lethality (LPS-induced animal death): promoted similar protection; also recorded: conferred significant protection; also recorded: prevented
[8]; LPS 10 mg/kg, LDK378 20 mg/kg, 12-48 hours
  organ dysfunction (serum enzyme activity): promoted similar protection
[8]; [10]
  endotoxemia-induced tissue injury (H&E): promoted similar protection; also recorded: prevented
  proinflammatory cytokine expression (mRNA): promoted similar protection
  proinflammatory cytokine release (serum antibody array): promoted similar protection
[8]; LPS 10 mg/kg, serum, 24 hours
  top five downregulated circulating immune chemical mediators compared with control group: EGF, CD14, CXCL1, endoglin, and CCL22
[9]
  interaction between ALK and EGFR: reduced
